Results taken from patent publication EP0536208B1, “1,2-DIHYDRO-3H-DIBENZISOQUINOLINE-1,3-DIONE ANTICANCER AGENTS” (RESEARCH CORPORATION TECHNOLOGIES, INC., priority 1990, dated 1992).
Converted amounts (≈) assume the structure as drawn. Like-named read-outs stand apart in the source and are kept apart here.

Legend:
[1] = test system: HT29p30; experiment: Activity against human colon tumor cells (MTT assay, 3 day drug exposure); type: cell-based; settings: cells plated 24 hr. prior to drug addition, read-out: Concentration for 50% inhibition of colony formation for human colon tumors
Description: (§1) For example, the compounds of the present invention were evaluated for cytotoxic activities in cloned human colon carcinomas. The clonogenic assays were conducted in accordance with the procedure described hereinbelow: 1) Colony Forming Assays in Soft Agar: Fresh human or murine tumors are disaggregated into single cell suspensions using mechanical, hypoosmotic and/or enzymatic (trypsin) methods. The single cells (about 5 X 10^4-10^5) are plated in 35 mm plastic petri dishes onto a 1 ml "feeder layer" of 0.3% agar dissolved in growth medium containing 5-10% vol/vol of heat-inactivated fetal bovine serum, molten 0.3% agar and the antibiotics penicillin (100 u/mL) and streptomycin (100 ug/mL). Drug exposures can be performed for one hour or continuously (drugs added to final plating medium). Tumor cell colonies > 60 uM in size are counted by automated image analysis after 10-20 days of incubation in a humidified, 5-10% CO2-gassed environment maintained at 37°C. Inhibition of colony formation is calculated based on comparisons to control (untreated) plates wherein the growth of hundreds of colonies/plate is typical. (Salmon SE, et al., N Engl J Med 298(24):1321-1327, 1978).
(§2) Compounds of the present invention were tested for their in vitro activity in tumor cells sensitive and resistant to standard anti-cancer agents. The tumor cell lines used in this protocol are 8226 human Myeloma^1; 8226/Dox-40^2, L-1210/Murine Leukemia, multidrug resistant L-210/^3, 2780 Human Ovarian Cancer and 2780/AD^4. Each of these resistant cell lines is known as a multidrug resistant or "MDR" cell line. These cell lines produce a 170,00 molecular weight membrane protein termed the P-glycoprotein which acts as an active drug efflux pump. Thus, once a cell produces the P-glycoprotein, it has the capability of pumping out of the cell a large variety of unrelated natural products. […] The protocol for measuring the effectiveness of compounds of the present invention is as follows: 2) In Vitro Tumor Cell Viability Assays Using MTT-Dye: Tumors are processed into a single cell suspension as described above. The cells are plated at a concentration of 3-5 X 10^4/1 mL well into plastic 96-well plates. […] Afterwards the medium containing the drug is removed, the cells are "washed" by centrifugation in fresh medium or phosphate-buffered saline (pH 7.4). A tetrazolium dye is then added (3,4,5-dimethylthiazol-2-yl)-2,5-diphenyl tetrazolium bromide (MTT). This dye forms a colored formazan product upon activation by mitochondrial reductases in viable cells. Typically, the formazan product is solubilized in acid-propanol or DMSO. The intensity of the color is proportional to viable cell numbers and this is quantitated by spectrophotometric absorbance ([…]) on a micro ELISA plate reader. Test results are calibrated in % control absorbance from untreated tumor cells (Mossman T: J Immunol Meth 65:55-63, 1983). Using the above procedure, Compound 1 was tested for its cytotoxic activity with respect to various tumor cell lines.

[2] = test system: SW80p105; experiment: as above; type: cell-based; settings: cells plated 24 hr. prior to drug addition, read-out: Concentration for 50% inhibition of colony formation for human colon tumors
Description: as §1, §2

[3] = test system: 205p14; experiment: as above; type: cell-based; settings: cells plated 24 hr. prior to drug addition, read-out: Concentration for 50% inhibition of colony formation for human colon tumors
Description: as §1
(§3) Compounds of the present invention were tested for their in vitro activity in tumor cells sensitive and resistant to standard anti-cancer agents. The tumor cell lines used in this protocol are 8226 human Myeloma^1; 8226/Dox-40^2, L-1210/Murine Leukemia, multidrug resistant L-210/^3, 2780 Human Ovarian Cancer and 2780/AD^4. Each of these resistant cell lines is known as a multidrug resistant or "MDR" cell line. These cell lines produce a 170,00 molecular weight membrane protein termed the P-glycoprotein which acts as an active drug efflux pump. Thus, once a cell produces the P-glycoprotein, it has the capability of pumping out of the cell a large variety of unrelated natural products. […] The protocol for measuring the effectiveness of compounds of the present invention is as follows: 2) In Vitro Tumor Cell Viability Assays Using MTT-Dye: Tumors are processed into a single cell suspension as described above. The cells are plated at a concentration of 3-5 X 10^4/1 mL well into plastic 96-well plates. Growth medium containing 5-10% (vol/vol) heat-inactivated fetal bovine serum and penicillin/streptomycin (as above) is added prior to incubation at 37°C for six days. Afterwards the medium containing the drug is removed, the cells are "washed" by centrifugation in fresh medium or phosphate-buffered saline (pH 7.4). A tetrazolium dye is then added (3,4,5-dimethylthiazol-2-yl)-2,5-diphenyl tetrazolium bromide (MTT). This dye forms a colored formazan product upon activation by mitochondrial reductases in viable cells. Typically, the formazan product is solubilized in acid-propanol or DMSO. The intensity of the color is proportional to viable cell numbers and this is quantitated by spectrophotometric absorbance ([…]) on a micro ELISA plate reader. Test results are calibrated in % control absorbance from untreated tumor cells (Mossman T: J Immunol Meth 65:55-63, 1983). Using the above procedure, Compound 1 was tested for its cytotoxic activity with respect to various tumor cell lines.

[4] = test system: LOVOp32; experiment: as above; type: cell-based; settings: cells plated 24 hr. prior to drug addition, read-out: Concentration for 50% inhibition of colony formation for human colon tumors
Description: as §1, §3

[5] = test system: Resistant L1210; experiment: In vitro tumor cell viability assay using MTT dye; type: cell-based, Murine; settings: Mus musculus
Description: as §2

[6] = test system: 8226/DOX-40; experiment: In vitro tumor cell viability assay using MTT dye; type: cell-based, Human; settings: Homo sapiens; 8226 Myeloma Cells Resistant; continuous exposure, MTT dye assay; read-out: IC50 VALUES
Description: as §2

[7] = test system: 8226 Human Myeloma; experiment: In vitro tumor cell viability assay using MTT dye; type: cell-based; settings: Homo sapiens; 8226 Myeloma Cells Sensitive; continuous exposure, MTT dye assay; read-out: IC50 VALUES
Description: as §2

[8] = test system: L-1210/Murine Leukemia; experiment: In vitro tumor cell viability assay using MTT dye; type: cell-based; settings: Mus musculus
Description: as §2

[9] = 144 h, Resistant L1210, six day MTT assay, continuous drug exposure, read-out: Concentration for 50% inhibition of tumor cells
[10] = L1210 Leukemia Cells Resistant, continuous exposure, MTT dye assay, read-out: IC50 VALUES
[11] = 144 h, Sensitive L1210, six day MTT assay, continuous drug exposure, read-out: Concentration for 50% inhibition of tumor cells
[12] = L1210 Leukemia Cells Sensitive, continuous exposure, MTT dye assay, read-out: IC50 VALUES

Structure (SMILES): CN(C)CCN1C(=O)c2cccc3cc4cccc([N+](=O)[O-])c4c(c23)C1=O [Compound 2, 2-[2-(dimethylamino)ethyl]-1,2-dihydro-11-nitro-2H-dibenz(deh)isoquinoline-1,3-dione]
- IC50 [1]: 1750 nM
- IC50 [2]: 2500 nM
- IC50 [3]: 3000 nM
- IC50 [4]: 3000 nM

Structure (SMILES): CN(C)CCN1C(=O)c2cccc3cc4cccc(N)c4c(c23)C1=O [Compound 3, 11-Amino-2-[2'-(dimethylamino)ethyl]-1,2-dihydro-3H-dibenz(deh)isoquinoline-1,3-dione]
- IC50 [1]: 3600 nM
- IC50 [2]: 3100 nM
- IC50 [3]: 2600 nM
- IC50 [4]: 4000 nM

Structure (SMILES): O=C1c2cccc3cc4ccccc4c(c23)C(=O)N1CCN1CCCCC1 [Compound 7, 2-[2'-(N-piperidino)ethyl]-1,2-dihydro-3H-dibenz(deh)isoquinoline-1,3-dione]
- IC50 [1]: 4400 nM
- IC50 [2]: 1000 nM
- IC50 [3]: 10000 nM
- IC50 [4]: 750 nM

Structure (SMILES): O=C1c2cccc3cc4ccccc4c(c23)C(=O)N1CCN1CCCC1 [Compound 8, 2-[2'-(N-pyrrolidino)ethyl]-1,2-dihydro-3H-dibenz(deh)isoquinoline-1,3-dione]
- IC50 [1]: 2600 nM
- IC50 [2]: 900 nM
- IC50 [3]: 11700 nM
- IC50 [4]: 1000 nM

Structure (SMILES): CCN1CCCC(N2C(=O)c3cccc4cc5ccccc5c(c34)C2=O)C1 (stereo not shown) [Compound 9, 2-(1'-ethyl-3'piperidinyl)-1,2-dihydro-3H-dibenz(deh)isoquinoline-1,3-dione]
- IC50 [1]: 11200 nM
- IC50 [2]: 3000 nM
- IC50 [3]: 17500 nM
- IC50 [4]: 5600 nM

Structure (SMILES): CN(C)c1ccc(N2C(=O)c3cccc4cc5ccccc5c(c34)C2=O)cc1 [Compound 10, 2-(4'-dimethylaminophenyl)-1,2-dihydro-3H-dibenz(deh)isoquinoline-1,3-dione]
- IC50 [1]: 250 nM
- IC50 [2]: 750 nM

Structure (SMILES): CN(C)CCCN1C(=O)c2cccc3cc4ccccc4c(c23)C1=O [Compound 11, 2-[3'-(dimethylamino)propyl]-1,2-dihydro-3H-dibenz(deh)isoquinoline-1,3-dione]
- IC50 [1]: 8300 nM
- IC50 [2]: 1300 nM
- IC50 [3]: 13500 nM
- IC50 [4]: 1600 nM

Structure (SMILES): O=C1c2cccc3cc4ccccc4c(c23)C(=O)N1CCCN(CCO)CCO [Compound 12]
- IC50 [1]: 8300 nM
- IC50 [2]: 1300 nM
- IC50 [3]: 11500 nM
- IC50 [4]: 800 nM

Structure (SMILES): CN(C)CCN1C(=O)c2cccc3cc4c([N+](=O)[O-])cccc4c(c23)C1=O [Compound 13, 2-[2'-(dimethylamino)ethyl]-1,2-dihydro-8-nitro-3H-dibenz(deh)isoquinoline-1,3-dione]
- IC50 [5, 9]: 3 ng/mL (≈ 8.26 nM)
- IC50 [5, 10]: 2.9 ng/mL (≈ 7.98 nM)
- IC50 [6]: 10 ng/mL (≈ 27.5 nM)
- IC50 [7]: 5 ng/mL (≈ 13.8 nM)
- IC50 [8, 11]: 2.7 ng/mL (≈ 7.43 nM)
- IC50 [8, 12]: 2.5 ng/mL (≈ 6.88 nM)

Structure (SMILES): CN(C)CCN1C(=O)c2cccc3cc4c(N)cccc4c(c23)C1=O [Compound 14, 8-Amino-2-[2'-(dimethylamino)ethyl]-1,2-dihydro-3H-dibenz-(deh)isoquinoline-1,3-dione]
- IC50 [5, 10]: > 5000 ng/mL
- IC50 [6]: > 100 ng/mL
- IC50 [7]: > 100 ng/mL
- IC50 [8, 11]: 5000 ng/mL (≈ 15000 nM)
- IC50 [8, 12]: 5000 ng/mL (≈ 15000 nM)

Structure (SMILES): CCc1ccc2c3c(c4ccccc4cc13)C(=O)N(CCN(C)C)C2=O [Compound 15, 2-[2'-(dimethylamino)ethyl]1,2-dihydro-6-ethyl-3H-dibenz(deh)isoquinoline-1,3-dione]
- IC50 [5, 9]: 3.1 ng/mL (≈ 8.95 nM)
- IC50 [8, 11]: 3.1 ng/mL (≈ 8.95 nM)

Structure (SMILES): CN(C)CCN1C(=O)c2cccc3cc4ccc(Cl)cc4c(c23)C1=O [Compound 16, 10-Chloro-2-[2'-(dimethylamino)ethyl]-1,2-dihydro-3H-dibenz(deh)isoquinoline-1,3-dione]
- IC50 [5, 9]: 2 ng/mL (≈ 5.67 nM)
- IC50 [8, 11]: 2.5 ng/mL (≈ 7.09 nM)

Structure (SMILES): CN(C)CCN1C(=O)c2cccc3c(Cl)c4ccccc4c(c23)C1=O [Compound 17, 7-Chloro-2-[2'-(dimethylamino)ethyl]-1,2-dihydro-3H-dibenz(deh)-isoquinoline-1,3-dione]
- IC50 [5, 9]: 30 ng/mL (≈ 85 nM)
- IC50 [8, 11]: 28 ng/mL (≈ 79.4 nM)

Structure (SMILES): Cc1c2ccccc2c2c3c(cccc13)C(=O)N(CCN(C)C)C2=O [Compound 19, 2-[2'-(Dimethylamino)ethyl]-1,2-dihydro-7-methyl-3H-dibenz(deh)isoquinoline-1,3-dione]
- IC50 [5, 9]: 3 ng/mL (≈ 9.03 nM)
- IC50 [8, 11]: 3 ng/mL (≈ 9.03 nM)

Structure (SMILES): COc1c2ccccc2c2c3c(cccc13)C(=O)N(CCN(C)C)C2=O [Compound 20, 2-[2'-(Dimethylamino)ethyl]-1,2-dihydro-7-methoxy-3H-dibenz-(deh)isoquinoline-1,3-dione]
- IC50 [5, 9]: 2.8 ng/mL (≈ 8.04 nM)
- IC50 [8, 11]: 3.2 ng/mL (≈ 9.18 nM)

Structure (SMILES): CN(C)CCN1C(=O)c2cccc3c(O)c4ccccc4c(c23)C1=O [Compound 21, 2-[2'-(dimethylamino)ethyl]-1,2-dihydro-7-hydroxy-3H-dibenz(deh)isoquinoline-1,3-dione]
- IC50 [5, 9]: 3.2 ng/mL (≈ 9.57 nM)
- IC50 [8, 11]: 3.2 ng/mL (≈ 9.57 nM)

Structure (SMILES): CNCCN1C(=O)c2cccc3cc4ccccc4c(c23)C1=O [Compound 22, 1,2-Dihydro-2-[2'-(methylamino)ethyl]-3H-dibenz(deh)isoquinoline-1,3-dione]
- IC50 [5, 9]: 2.7 ng/mL (≈ 8.87 nM)
- IC50 [8, 11]: 3.2 ng/mL (≈ 10.5 nM)
